Laboratory results published in patent US10689414B2 (Agios Pharmaceuticals, Inc., priority 2013, dated 2020).

System: U87MG cells
Experiment: Cellular assay, inhibition of 2-HG production in U87MG cells
Format: cell-based
Settings: Homo sapiens, U-87 MG, 48 h
Outline: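 HT1080 or U87MG cells (U87MG kept with 500 ug/mL G418) seeded at 5000 cells/well and treated with compound at 0.2% final DMSO. Incubated 48 h at 37 °C. 2-HG inhibition determined by LC-MS. Viability read by CellTiter-Glo luminescence at 72 h post-dose.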

SMILES: O=C(NC1CCC(F)(F)CC1)[C@H](c1ccccc1Cl)N(C(=O)[C@@H]1COC(=O)N1c1ncccn1)c1cccc(F)c1 [Compound 76, (S)—N—((S)-1-(2-Chlorophenyl)-2-((4,4-difluorocyclohexyl)amino)-2-oxoethyl)-N-(3-fluoro-phenyl)-2-oxo-3-(pyrimidin-2-yl)oxazolidine-4-carboxamide]
- IC50: < 100 nM

SMILES: N#Cc1ccnc(N2C(=O)[C@@H](O)C[C@H]2C(=O)N(c2cc(F)cc(F)c2)[C@H](C(=O)NC2CCC(F)(F)CC2)c2ccccc2Cl)c1 [Compound 174, (2S,4S)—N—((S)-1-(2-Chlorophenyl)-2-((4,4-difluorocyclohexyl)amino)-2-oxoethyl)-1-(4-cyanopyridin-2-yl)-N-(3,5-difluorophenyl)-4-hydroxy-5-oxopyrrolidine-2-carboxamide]
- IC50: < 100 nM

SMILES: N#Cc1ccnc(N2C(=O)CC[C@H]2C(=O)N(c2cccc(F)c2)[C@H](C(=O)NC2CCC(F)(F)CC2)c2ccccc2Cl)c1F [Compound 83, (S)—N—((S)-1-(2-Chlorophenyl)-2-((4,4-difluorocyclohexyl)amino)-2-oxoethyl)-1-(4-cyano-3-fluoropyridin-2-yl)-N-(3-fluorophenyl)-5-oxopyrrolidine-2-carboxamide]
- IC50: < 100 nM

SMILES: N#Cc1ccnc(N2C(=O)CC[C@H]2C(=O)N(c2cc(F)cc(F)c2)[C@H](C(=O)NC2CC(F)(F)C2)c2c(Cl)cccc2Cl)c1 [Compound 199, (S)-1-(4-Cyanopyridin-2-yl)-N—((S)-1-(2,6-dichlorophenyl)-2-((3,3-difluorocyclobutyl)amino)-2-oxoethyl)-N-(3,5-difluorophenyl)-5-oxopyrrolidine-2-carboxamide]
- IC50: < 100 nM

SMILES: N#Cc1ccnc(N2C(=O)[C@H](O)C[C@H]2C(=O)N(c2cccc(F)c2)[C@@H](C(=O)NC2CCC(F)(F)CC2)c2ccccc2Cl)n1 [Compound 122, (2S,4R)—N—((R)-1-(2-Chlorophenyl)-2-((4,4-difluorocyclohexyl)amino)-2-oxoethyl)-1-(4-cyanopyrimidin-2-yl)-N-(3-fluorophenyl)-4-hydroxy-5-oxopyrrolidine-2-carboxamide]
- IC50: 100 to 500 nM

SMILES: N#Cc1ccnc(N2C(=O)CC[C@H]2C(=O)N(c2cncc(F)c2)[C@H](C(=O)NC2CC(F)(F)C2)c2ccccc2Cl)c1 [Compound 176, (S)—N—((S)-1-(2-Chlorophenyl)-2-(3,3-difluorocyclobutylamino)-2-oxoethyl)-1-(4-cyanopyridin-2-yl)-N-(5-fluoropyridin-3-yl)-5-oxopyrrolidine-2-carboxamide]
- IC50: < 100 nM

SMILES: N#Cc1ccnc(N2C(=O)CC[C@H]2C(=O)N(c2cccc(CCO)c2)[C@H](C(=O)NC2CC(F)(F)C2)c2ccccc2Cl)c1 [Compound 160, (S)—N—((S)-1-(2-Chlorophenyl)-2-((3,3-difluorocyclobutyl)amino)-2-oxoethyl)-1-(4-cyanopyri-din-2-yl)-N-(3-(2-hydroxyethyl)phenyl)-5-oxopyrrolidine-2-carboxamide]
- IC50: < 100 nM

SMILES: O=C(NC1CC(F)(F)C1)C(c1ccccc1Cl)N(C(=O)[C@@H]1CCC(=O)N1c1ccccc1)c1cccc(F)c1 (stereo partly shown) [Compound 23]
- IC50: 100 to 500 nM

SMILES: N#Cc1ccnc(N2C(=O)[C@H](O)C[C@H]2C(=O)N(c2cc(F)cc(F)c2)[C@@H](C(=O)NC2CC(F)(F)C2)c2ccccc2Cl)c1 [Compound 114, (2S,4R)—N—((R)-1-(2-Chlorophenyl)-2-((3,3-difluorocyclobutyl)amino)-2-oxoethyl)-1-(4-cyanopyridin-2-yl)-N-(3,5-difluorophenyl)-4-hydroxy-5-oxopyrrolidine-2-carboxamide]
- IC50: < 100 nM

SMILES: N#Cc1ccnc(N2C(=O)OC[C@H]2C(=O)N(c2cncc(F)c2)[C@H](C(=O)NC2CC(F)(F)C2)c2ccccc2Cl)c1 [Compound 135, (S)—N—((S)-1-(2-Chlorophenyl)-2-((3,3-difluorocyclobutyl)amino)-2-oxoethyl)-3-(4-cyanopyri-din-2-yl)-N-(5-fluoropyridin-3-yl)-2-oxooxazolidine-4-carboxamide]
- IC50: < 100 nM

SMILES: N#Cc1ccnc(N2C(=O)CCC[C@H]2C(=O)N(c2cccc(F)c2)[C@H](C(=O)NC2CC(F)(F)C2)c2ccccc2Cl)c1 [Compound 55, (S)—N—((S)-1-(2-Chlorophenyl)-2-(3,3-difluorocyclobutylamino)-2-oxoethyl)-1-(4-cyanopyri-din-2-yl)-N-(3-fluorophenyl)-6-oxopiperidine-2-carboxamide]
- IC50: < 100 nM

SMILES: N#Cc1ccnc(N2C(=O)CC[C@H]2C(=O)N(c2cccc(F)c2)[C@H](C(=O)NC2CC(F)(F)C2)c2ccccc2Cl)c1 [Compound 37]
- IC50: < 100 nM

SMILES: N#Cc1ccnc(N2C(=O)OC[C@H]2C(=O)N(c2cccc(F)c2)[C@H](C(=O)NC2CC(F)(F)C2)c2ccccc2Cl)c1 [Compound 77, (S)—N—((S)-1-(2-Chlorophenyl)-2-(3,3-difluorocyclobutylamino)-2-oxoethyl)-3-(4-cyanopyri-din-2-yl)-N-(3-fluorophenyl)-2-oxooxazolidine-4-carboxamide]
- IC50: < 100 nM

SMILES: N#Cc1ccnc(N2C(=O)OCC[C@H]2C(=O)N(c2cncc(F)c2)[C@H](C(=O)NC2CCC(F)(F)CC2)c2ccccc2Cl)c1 [Compound 137, (S)—N—((S)-1-(2-Chlorophenyl)-2-((4,4-difluorocyclohexyl)amino)-2-oxoethyl)-3-(4-cyano-pyridin-2-yl)-N-(5-fluoropyridin-3-yl)-2-oxo-1,3-oxazinane-4-carboxamide]
- IC50: < 100 nM

SMILES: N#Cc1ccnc(N2C(=O)CC[C@H]2C(=O)N(c2cc(F)cc(F)c2)[C@H](C(=O)NC2CCC(F)(F)CC2)c2ccccc2Cl)n1 [Compound 87, (S)—N—((S)-1-(2-Chlorophenyl)-2-((4,4-difluorocyclohexyl)amino)-2-oxoethyl)-1-(4-cyanopyrimidin-2-yl)-N-(3,5-difluorophenyl)-5-oxopyrrolidine-2-carboxamide]
- IC50: < 100 nM

SMILES: N#Cc1ccnc(N2C(=O)CNC[C@H]2C(=O)N(c2cc(F)cc(F)c2)[C@H](C(=O)NC2CC(F)(F)C2)c2ccccc2Cl)n1 [Compound 99, (S)—N—((S)-1-(2-chlorophenyl)-2-((3,3-difluorocyclobutyl)amino)-2-oxoethyl)-1-(4-cyanopyrimidin-2-yl)-N-(3,5-difluorophenyl)-6-oxopiperazine-2-carboxamide]
- IC50: < 100 nM

SMILES: N#Cc1ccnc(N2C(=O)[C@@H](O)C[C@H]2C(=O)N(c2cccc(F)c2)[C@H](C(=O)NC2CC(F)(F)C2)c2ccccc2Cl)c1 [Compound 118, (2S,4S)—N—((S)-1-(2-Chlorophenyl)-2-(3,3-difluorocyclobutylamino)-2-oxoethyl)-1-(4-cyano-pyridin-2-yl)-N-(3-fluorophenyl)-4-hydroxy-5-oxopyrrolidine-2-carboxamide]
- IC50: < 100 nM

SMILES: N#Cc1ccnc(N2C(=O)[C@H](O)C[C@H]2C(=O)N(c2cccc(F)c2)[C@H](C(=O)NC2CC(F)(F)C2)c2ccccc2Cl)c1 [Compound 113, (2S,4R)—N—((S)-1-(2-Chlorophenyl)-2-(3,3-difluorocyclobutylamino)-2-oxoethyl)-1-(4-cyano-pyridin-2-yl)-N-(3-fluorophenyl)-4-hydroxy-5-oxopyrrolidine-2-carboxamide]
- IC50: < 100 nM

SMILES: N#Cc1ccnc(N2C(=O)CC[C@H]2C(=O)N(c2cc(F)cc(F)c2)[C@H](C(=O)NC2CC(F)(F)C2)c2ccccc2Cl)c1F [Compound 88, (S)—N—((S)-1-(2-Chlorophenyl)-2-((3,3-difluorocyclobutyl)amino)-2-oxoethyl)-1-(4-cyano-3-fluoropyridin-2-yl)-N-(3,5-difluorophenyl)-5-oxopyrrolidine-2-carboxamide]
- IC50: < 100 nM

SMILES: O=C(NC1CCC(F)(F)CC1)[C@H](c1ccccc1Cl)N(C(=O)[C@@H]1CCC(=O)N1c1cnccn1)c1cccc(F)c1 [Compound 58, (S)—N—((S)-1-(2-Chlorophenyl)-2-(4,4-difluorocyclohexylamino)-2-oxoethyl)-N-(3-fluorophenyl)-5-oxo-1-(pyrazin-2-yl)pyrrolidine-2-carboxamide]
- IC50: < 100 nM

SMILES: N#Cc1cccc(N(C(=O)[C@@H]2CCC(=O)N2c2cc(C#N)ccn2)[C@H](C(=O)NC2CC(F)(F)C2)c2ccccc2Cl)c1 [Compound 128, (S)—N—((S)-1-(2-Chlorophenyl)-2-((3,3-difluorocyclobutyl)amino)-2-oxoethyl)-N-(3-cyano-phenyl)-1-(4-cyanopyridin-2-yl)-5-oxopyrrolidine-2-carboxamide]
- IC50: < 100 nM

SMILES: N#Cc1ccnc(N2C(=O)CC[C@H]2C(=O)N(c2cc(F)cc(F)c2)[C@H](C(=O)NC2CC(F)(F)C2)c2ccccc2Cl)n1 [Compound 86, (S)—N—((S)-1-(2-Chlorophenyl)-2-((3,3-difluorocyclobutyl)amino)-2-oxoethyl)-1-(4-cyanopyrimidin-2-yl)-N-(3,5-difluorophenyl)-5-oxopyrrolidine-2-carboxamide]
- IC50: < 100 nM

SMILES: N#Cc1ccnc(N2C(=O)CC[C@H]2C(=O)N(c2cccc(-c3cn[nH]c3)c2)[C@H](C(=O)NC2CC(F)(F)C2)c2ccccc2Cl)c1 (single isomer, unassigned) [Compound 200]
- IC50: < 100 nM

SMILES: N#Cc1ccnc(N2C(=O)CC[C@H]2C(=O)N(c2cccc3[nH]cnc23)C(C(=O)NC2CCC(F)(F)CC2)c2ccccc2Cl)c1 (stereo partly drawn) [Compound 141, (2S)—N-(1H-benzo[d]imidazol-7-yl)-N-(1-(2-chlorophenyl)-2-((4,4-difluorocyclohexyl)amino)-2-oxoethyl)-1-(4-cyanopyridin-2-yl)-5-oxopyrrolidine-2-carboxamide]
- IC50: < 100 nM

SMILES: N#Cc1ccnc(N2C(=O)[C@H](O)C[C@H]2C(=O)N(c2cc(F)cc(F)c2)[C@H](C(=O)NC2CC(F)(F)C2)c2ccccc2Cl)n1 [Compound 117, (2S,4R)—N—((S)-1-(2-Chlorophenyl)-2-((3,3-difluorocyclobutyl)amino)-2-oxoethyl)-1-(4-cyanopyrimidin-2-yl)-N-(3,5-difluorophenyl)-4-hydroxy-5-oxopyrrolidine-2-carboxamide]
- IC50: < 100 nM
